Earlier results as cited in patent US20210065841A1, “METHOD FOR DETERMINING ANDROGEN AND ANTI-ANDROGEN EFFECTS ON SUBSTANCES” (priority 2018, published 2021).

Molecular target: T1, androgen receptor (Homo sapiens, UniProt P10275)
T1 sequence (P10275 1-920): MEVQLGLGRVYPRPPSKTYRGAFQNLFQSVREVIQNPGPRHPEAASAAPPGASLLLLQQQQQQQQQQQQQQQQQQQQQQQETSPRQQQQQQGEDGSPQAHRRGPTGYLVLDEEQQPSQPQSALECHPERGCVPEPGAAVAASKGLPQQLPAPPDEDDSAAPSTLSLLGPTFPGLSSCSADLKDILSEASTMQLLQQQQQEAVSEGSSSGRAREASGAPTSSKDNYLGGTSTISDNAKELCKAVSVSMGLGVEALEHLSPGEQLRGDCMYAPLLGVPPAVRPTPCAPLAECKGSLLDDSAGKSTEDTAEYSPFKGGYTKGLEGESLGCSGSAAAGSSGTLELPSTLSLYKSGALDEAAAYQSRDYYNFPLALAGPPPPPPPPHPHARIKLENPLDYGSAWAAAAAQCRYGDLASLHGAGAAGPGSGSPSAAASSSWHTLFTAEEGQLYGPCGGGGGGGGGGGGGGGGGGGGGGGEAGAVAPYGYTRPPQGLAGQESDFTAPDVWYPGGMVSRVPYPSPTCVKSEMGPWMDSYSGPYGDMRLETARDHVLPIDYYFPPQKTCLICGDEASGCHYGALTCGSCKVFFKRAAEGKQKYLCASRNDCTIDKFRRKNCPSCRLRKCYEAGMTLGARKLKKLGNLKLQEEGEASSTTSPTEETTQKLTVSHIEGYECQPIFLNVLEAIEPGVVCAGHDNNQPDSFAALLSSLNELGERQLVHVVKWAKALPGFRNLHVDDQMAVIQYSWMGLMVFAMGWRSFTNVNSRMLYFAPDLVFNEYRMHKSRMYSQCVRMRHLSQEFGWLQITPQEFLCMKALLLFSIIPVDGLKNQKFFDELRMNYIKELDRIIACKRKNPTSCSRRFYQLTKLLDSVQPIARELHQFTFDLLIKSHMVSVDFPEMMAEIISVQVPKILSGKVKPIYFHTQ
Settings: previous reports

Compound	androgen receptor antagonistic properties
CCCCC(CC)COC(=O)c1cc(Br)c(Br)c(Br)c1Br (centres unmarked) [TBB]	androgen receptor antagonistic properites
BrC1CCC(Br)C(Br)CCC1Br (centres unmarked) [TBCO]	androgen receptor antagonistic properites
